Assays:
[1] = biological target: T1, Dual specificity tyrosine-phosphorylation-regulated kinase 2 (Homo sapiens, UniProt Q92630); experiment: Inhibition of DYRK2 (unknown origin)
T1 sequence (Q92630 whole entry): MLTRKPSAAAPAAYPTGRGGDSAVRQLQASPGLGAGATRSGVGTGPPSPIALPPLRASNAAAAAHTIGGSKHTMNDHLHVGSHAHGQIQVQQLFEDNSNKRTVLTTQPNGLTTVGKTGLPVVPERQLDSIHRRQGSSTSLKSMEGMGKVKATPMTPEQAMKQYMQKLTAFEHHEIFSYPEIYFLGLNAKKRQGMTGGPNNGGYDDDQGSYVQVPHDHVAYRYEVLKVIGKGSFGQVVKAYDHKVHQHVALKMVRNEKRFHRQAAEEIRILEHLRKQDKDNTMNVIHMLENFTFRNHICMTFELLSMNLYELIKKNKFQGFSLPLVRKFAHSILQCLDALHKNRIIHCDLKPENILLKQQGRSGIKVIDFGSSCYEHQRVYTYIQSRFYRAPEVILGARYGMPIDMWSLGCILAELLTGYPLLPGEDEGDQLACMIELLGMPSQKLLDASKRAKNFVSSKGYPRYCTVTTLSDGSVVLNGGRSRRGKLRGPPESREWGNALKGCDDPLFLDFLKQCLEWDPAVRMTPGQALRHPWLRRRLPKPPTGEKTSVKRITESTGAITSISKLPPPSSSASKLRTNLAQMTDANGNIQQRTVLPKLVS

[2] = biological target: T2, Glycogen synthase kinase-3 beta (Homo sapiens, UniProt P49841); experiment: Inhibition of GSK3B (unknown origin)
Target sequence in this assay (P49841 whole entry): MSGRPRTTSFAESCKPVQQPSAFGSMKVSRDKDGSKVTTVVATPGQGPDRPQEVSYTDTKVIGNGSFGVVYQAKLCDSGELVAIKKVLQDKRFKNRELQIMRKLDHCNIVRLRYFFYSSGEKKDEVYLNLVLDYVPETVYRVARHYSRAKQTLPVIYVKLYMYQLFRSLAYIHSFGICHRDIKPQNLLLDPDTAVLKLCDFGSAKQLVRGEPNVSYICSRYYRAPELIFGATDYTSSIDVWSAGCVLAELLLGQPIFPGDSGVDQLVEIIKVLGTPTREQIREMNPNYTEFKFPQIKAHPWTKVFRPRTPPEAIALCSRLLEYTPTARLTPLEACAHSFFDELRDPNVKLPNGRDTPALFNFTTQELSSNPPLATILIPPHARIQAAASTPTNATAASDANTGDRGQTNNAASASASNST

[3] = biological target: Dual specificity tyrosine-phosphorylation-regulated kinase 1A (Homo sapiens) (UniProt Q13627); experiment: Binding affinity to 6x-His-tagged DYRK1A (unknown origin) assessed as change in melting temperature of protein at 10 uM by Sypro-orange dye based DSF assay
[4] = biological target: T3, Dual specificity protein kinase CLK1 (Homo sapiens, UniProt P49759); experiment: Binding affinity to CLK1 (unknown origin) assessed as change in melting temperature of protein at 10 uM by Sypro-orange dye based DSF assay
Target sequence in this assay (P49759 whole entry, looked up): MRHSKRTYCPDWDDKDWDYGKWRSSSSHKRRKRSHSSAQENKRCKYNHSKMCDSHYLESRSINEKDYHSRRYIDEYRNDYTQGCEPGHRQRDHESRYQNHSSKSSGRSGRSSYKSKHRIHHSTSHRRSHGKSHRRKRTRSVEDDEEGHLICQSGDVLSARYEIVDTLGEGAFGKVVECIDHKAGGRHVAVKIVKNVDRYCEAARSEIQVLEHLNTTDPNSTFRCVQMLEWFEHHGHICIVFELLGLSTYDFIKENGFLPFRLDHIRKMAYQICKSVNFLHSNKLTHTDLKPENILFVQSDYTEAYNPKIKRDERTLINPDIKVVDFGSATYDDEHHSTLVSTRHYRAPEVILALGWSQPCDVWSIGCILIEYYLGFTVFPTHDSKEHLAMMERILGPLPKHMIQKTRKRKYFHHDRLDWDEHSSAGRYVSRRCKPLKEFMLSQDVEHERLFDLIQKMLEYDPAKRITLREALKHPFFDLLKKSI

[5] = biological target: Dual specificity protein kinase CLK3 (Homo sapiens, UniProt P49761); experiment: Inhibition of CLK3 (unknown origin)
Chain of Dual specificity protein kinase CLK3 (P49761 whole entry): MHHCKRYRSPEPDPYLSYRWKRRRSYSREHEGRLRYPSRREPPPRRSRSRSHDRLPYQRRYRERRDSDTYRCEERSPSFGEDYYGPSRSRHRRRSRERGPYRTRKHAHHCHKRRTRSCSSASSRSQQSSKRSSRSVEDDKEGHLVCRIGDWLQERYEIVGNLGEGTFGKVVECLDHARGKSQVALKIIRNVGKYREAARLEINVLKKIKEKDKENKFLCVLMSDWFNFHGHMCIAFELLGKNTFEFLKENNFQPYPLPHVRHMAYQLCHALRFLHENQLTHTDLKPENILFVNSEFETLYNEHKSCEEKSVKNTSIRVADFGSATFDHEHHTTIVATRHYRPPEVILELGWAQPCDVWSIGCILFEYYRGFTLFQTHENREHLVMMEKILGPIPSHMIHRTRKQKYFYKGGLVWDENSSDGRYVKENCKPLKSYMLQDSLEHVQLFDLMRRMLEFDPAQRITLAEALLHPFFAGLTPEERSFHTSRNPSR

[6] = biological target: T4, Dual specificity tyrosine-phosphorylation-regulated kinase 3 (Homo sapiens, UniProt O43781); experiment: Inhibition of DYRK3 (unknown origin)
T4 sequence (O43781 whole entry): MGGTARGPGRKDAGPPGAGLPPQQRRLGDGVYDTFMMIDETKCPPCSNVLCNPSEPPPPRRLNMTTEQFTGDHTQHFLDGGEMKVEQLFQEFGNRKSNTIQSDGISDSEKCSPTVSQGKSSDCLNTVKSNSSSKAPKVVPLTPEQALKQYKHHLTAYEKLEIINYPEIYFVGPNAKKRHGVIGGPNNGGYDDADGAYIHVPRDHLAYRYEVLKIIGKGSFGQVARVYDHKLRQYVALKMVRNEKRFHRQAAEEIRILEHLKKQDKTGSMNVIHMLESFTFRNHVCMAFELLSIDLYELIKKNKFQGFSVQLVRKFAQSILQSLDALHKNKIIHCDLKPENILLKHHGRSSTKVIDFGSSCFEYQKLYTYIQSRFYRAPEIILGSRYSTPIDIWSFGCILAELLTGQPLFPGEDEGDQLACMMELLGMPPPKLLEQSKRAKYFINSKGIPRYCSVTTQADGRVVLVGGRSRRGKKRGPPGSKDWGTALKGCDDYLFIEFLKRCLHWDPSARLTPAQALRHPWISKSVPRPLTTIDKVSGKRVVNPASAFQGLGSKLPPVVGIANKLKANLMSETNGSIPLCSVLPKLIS

[7] = biological target: Dual specificity protein kinase CLK4 (Homo sapiens, UniProt Q9HAZ1); experiment: Inhibition of CLK4 (unknown origin)
Chain of Dual specificity protein kinase CLK4 (Q9HAZ1 whole entry): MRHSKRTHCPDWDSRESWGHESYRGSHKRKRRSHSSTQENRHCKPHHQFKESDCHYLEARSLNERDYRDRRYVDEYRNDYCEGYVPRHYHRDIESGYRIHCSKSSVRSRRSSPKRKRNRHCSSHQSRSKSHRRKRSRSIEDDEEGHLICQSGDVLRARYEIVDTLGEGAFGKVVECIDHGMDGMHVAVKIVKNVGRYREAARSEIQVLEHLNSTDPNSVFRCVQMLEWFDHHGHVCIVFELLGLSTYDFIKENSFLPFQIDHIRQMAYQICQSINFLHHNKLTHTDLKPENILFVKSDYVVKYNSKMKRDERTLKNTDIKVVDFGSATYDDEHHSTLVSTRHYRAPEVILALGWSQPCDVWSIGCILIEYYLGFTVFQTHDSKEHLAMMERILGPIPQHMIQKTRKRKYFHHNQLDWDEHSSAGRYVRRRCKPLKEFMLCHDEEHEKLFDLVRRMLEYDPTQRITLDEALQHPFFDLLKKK

[8] = biological target: Glycogen synthase kinase-3 alpha (Homo sapiens, UniProt P49840); experiment: Inhibition of GSK3A (unknown origin)
Chain of Glycogen synthase kinase-3 alpha (P49840 whole entry): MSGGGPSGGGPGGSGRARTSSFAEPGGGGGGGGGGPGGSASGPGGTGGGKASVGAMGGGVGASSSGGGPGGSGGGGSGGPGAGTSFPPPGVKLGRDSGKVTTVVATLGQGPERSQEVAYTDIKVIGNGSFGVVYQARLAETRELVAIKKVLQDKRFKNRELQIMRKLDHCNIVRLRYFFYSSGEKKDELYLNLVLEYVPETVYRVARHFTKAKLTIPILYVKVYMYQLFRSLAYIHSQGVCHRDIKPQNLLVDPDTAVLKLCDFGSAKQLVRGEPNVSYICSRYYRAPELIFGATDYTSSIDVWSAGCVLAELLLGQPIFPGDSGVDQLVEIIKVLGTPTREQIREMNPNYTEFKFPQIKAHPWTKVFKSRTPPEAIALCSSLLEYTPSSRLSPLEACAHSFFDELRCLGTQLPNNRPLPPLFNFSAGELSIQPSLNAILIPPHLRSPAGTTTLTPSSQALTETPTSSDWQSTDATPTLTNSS

[9] = biological target: T5, Dual specificity tyrosine-phosphorylation-regulated kinase 2 (Homo sapiens) (UniProt Q92630); experiment: Binding affinity to DYRK2 (unknown origin) assessed as change in melting temperature of protein at 10 uM by Sypro-orange dye based DSF assay
T5 sequence (whole entry): T1 sequence (Q92630 whole entry)

[10] = biological target: Dual specificity protein kinase CLK2 (Homo sapiens, UniProt P49760); experiment: Inhibition of CLK2 (unknown origin)
Chain of Dual specificity protein kinase CLK2 (P49760 whole entry): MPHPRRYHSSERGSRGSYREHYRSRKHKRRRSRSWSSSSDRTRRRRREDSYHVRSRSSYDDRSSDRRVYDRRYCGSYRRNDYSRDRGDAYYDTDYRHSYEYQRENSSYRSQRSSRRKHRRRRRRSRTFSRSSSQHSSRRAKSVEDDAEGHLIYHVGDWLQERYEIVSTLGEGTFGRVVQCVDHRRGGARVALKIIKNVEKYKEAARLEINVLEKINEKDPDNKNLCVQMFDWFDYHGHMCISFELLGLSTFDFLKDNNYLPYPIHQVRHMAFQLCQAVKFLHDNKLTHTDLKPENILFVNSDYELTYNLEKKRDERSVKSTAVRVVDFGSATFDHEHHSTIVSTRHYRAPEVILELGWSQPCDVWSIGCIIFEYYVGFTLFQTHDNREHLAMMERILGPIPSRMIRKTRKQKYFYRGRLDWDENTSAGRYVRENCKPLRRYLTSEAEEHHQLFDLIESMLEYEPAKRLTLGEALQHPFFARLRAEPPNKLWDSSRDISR

[11] = biological target: T2, Glycogen synthase kinase-3 beta; experiment: Binding affinity to GSK3B (unknown origin) assessed as change in melting temperature of protein at 10 uM by Sypro-orange dye based DSF assay
Target sequence in this assay (P49841 whole entry, looked up): as the sequence (P49841 whole entry) above

[12] = biological target: T6, Dual specificity tyrosine-phosphorylation-regulated kinase 4 (Homo sapiens, UniProt Q9NR20); experiment: Inhibition of DYRK4 (unknown origin)
T6 sequence (Q9NR20 whole entry): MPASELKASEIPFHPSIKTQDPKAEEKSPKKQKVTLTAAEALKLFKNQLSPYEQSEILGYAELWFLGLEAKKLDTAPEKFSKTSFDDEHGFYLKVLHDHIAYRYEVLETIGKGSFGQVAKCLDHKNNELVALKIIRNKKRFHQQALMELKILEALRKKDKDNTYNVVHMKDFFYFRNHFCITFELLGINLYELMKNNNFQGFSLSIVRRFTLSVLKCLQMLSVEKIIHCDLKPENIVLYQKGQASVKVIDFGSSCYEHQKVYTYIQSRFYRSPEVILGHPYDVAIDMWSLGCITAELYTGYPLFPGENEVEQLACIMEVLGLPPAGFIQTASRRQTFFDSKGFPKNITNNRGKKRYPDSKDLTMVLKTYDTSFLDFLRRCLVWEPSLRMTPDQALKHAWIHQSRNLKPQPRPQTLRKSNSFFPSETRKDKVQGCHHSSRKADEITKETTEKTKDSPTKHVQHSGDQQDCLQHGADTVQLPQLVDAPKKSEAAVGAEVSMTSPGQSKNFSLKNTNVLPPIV

[13] = biological target: T3, Dual specificity protein kinase CLK1; experiment: Inhibition of CLK1 (unknown origin)
Target sequence in this assay (P49759 whole entry): as the sequence (P49759 whole entry, looked up) above

Structure (SMILES) | IC50 [1] | IC50 [2] | ΔTm [3] | ΔTm [4] | IC50 [5] | IC50 [6] | IC50 [7] | IC50 [8] | ΔTm [9] | IC50 [10] | ΔTm [11] | IC50 ([12]; read-out: IC50) | IC50 [13] | IC50 [12]
COC(=N)c1nc2ccc3ncnc(Nc4ccc(OC)cc4F)c3c2s1 | 3.16 nM | 143 nM | 9 °C | 5 °C | 1420 nM | 21.1 nM | 32 nM | 9.11 nM | 5 °C | 32.5 nM | 5 °C | 1570 nM | 11 nM | 
COC(=N)c1nc2ccc3ncnc(Nc4ccc(Cl)cc4Cl)c3c2s1 | 10.8 nM | 221 nM | 9 °C | 5 °C | > 10000 nM | 93.2 nM | 59 nM | 7.44 nM | 5 °C | 88.8 nM | 5 °C |  | 22.8 nM | Not Active
